“Also recorded” adds a separate entry of the source.
What was measured:
[1] = tested on: NL4–3 Env pseudo-typed HIV-1 virus; assay: ELISA-based quantification of capsid; type: cell-based; conditions: 10 μM compound
in vitro = conditions: human, microsomes
Kunming mice = assay: Single-dose acute toxicity in mice; conditions: intragastric
recombinant HIV-1 RT = recombinant HIV-1 RT (Human immunodeficiency virus type 1 group M subtype B, UniProt P03366); assay: Recombinant HIV-1 RT inhibitory assay; type: biochemical; conditions: at 0.2 μM
[2] = In vivo pharmacokinetics in rats; conditions: rat, iv 2 mg/kg

| Compound | increase of CA/p24 content of the produced virus compared to the DMSO control [1] | CLint scaled (in vitro) [mL/min/kg] | further results |
| --- | --- | --- | --- |
| COc1ccc(N(C)C(=O)[C@H](Cc2ccccc2)NC(=O)CN2C(=O)Nc3ccccc3S2(=O)=O)cc1 [Compound 8a, (S)-2-(2-(1,1-dioxido-3-oxo-3,4-dihydro-2H-benzo[e][1,2,4]thiadiazin-2-yl)acetamido)-N-(4-methoxyphenyl)-N-methyl-3-phenylpropanamide] | 0–20% | – | – |
| O=C(O)Cc1ccccc1Nc1c(Cl)cccc1Cl [Diclofenac] | – | 84.3 | – |
| Cc1[nH]c2ccccc2c1CC(=O)N[C@@H](Cc1ccccc1)C(=O)N(C)c1ccccc1 [PF-74, reference compound] | around 40% | 972 | – |
| COc1ccc(N(C)C(=O)[C@H](Cc2ccccc2)NC(=O)CN2CCN(S(=O)(=O)c3ccc(N)cc3)CC2=O)cc1 [Compound 11l, (S)-2-(2-(4-((4-aminophenyl)sulfonyl)-2-oxopiperazin-1-yl)acetamido)-N-(4-methoxyphenyl)-N-methyl-3-phenylpropanamide] | 0–20% | 308 | death after single dose (Kunming mice; 1000 mg/kg): No death was observed; acute toxicity / tolerability (Kunming mice; single dose 1000 mg/kg, one week): no acute toxicity; also recorded: well-tolerated; RT activity as compared to the DMSO control (recombinant HIV-1 RT): 95±15%; V [2]: 5.7524 L/kg |
| COc1ccc(N(C)C(=O)[C@H](Cc2ccccc2)NC(=O)CNS(=O)(=O)c2cccc(F)c2)cc1 [Compound 6k, (S)-2-(2-((3-fluorophenyl)sulfonamido)acetamido)-N-(4-methoxyphenyl)-N-methyl-3-phenylpropanamide] | 0–20% | – | – |
| C[C@]12CC[C@H]3[C@@H](CCC4=CC(=O)CC[C@@]43C)[C@@H]1CC[C@@H]2O [Testosteron^e, Testosterone] | – | 85.7 | CLint(mic) (HLM 0.5 mg protein/mL): 95.2 µL/min/mg; Remaining (T=60min) (HLM 0.5 mg protein/mL, 60 min): 6.1%; Remaining (NCF=60min) (no cofactor (no NADPH), 60 min): 84.0% |

— paper PMC8011991 (Journal of medicinal chemistry, 2020)
